Reference: patent US11011273B2, “Pathway analysis for identification of diagnostic tests” (Nantomics, LLC, priority 2013, dated 2021)

Legend:
Assay type in all cases: cell-based
[1] = tested on: set of cell lines (MV411, TT, AN3CA, K562, PC3, HCT116, ASPC1, MDAMB231, TF1, NCIH23, MIAPACA2, HS766T, CAPAN2, A549, HT29, U937, BXPC3, CAPAN1, SU8686); assay: Treatment effectiveness (GI50) of NANT3456 on a set of cell lines; conditions: median over all cell lines of FIG. 2; dotted line 220
Text: (§1) There are many ways to derive and measure treatment effectiveness data 136 for a particular treatment. For example, effectiveness data can be derived by administering the evaluated treatment to each and every diseased cell line, and measure the effect of the evaluated treatment on each diseased cell line. The measurement can be based on an amount of drug needed to obtain a threshold inhibition effect of the disease in the cell line (e.g., the amount of drug needed to reduce the activities of the disease by half).
(§2) FIG. 2 illustrates a graph 200 showing a graphical representation of an example set of treatment effectiveness data 136 that represents how effective NANT3456 is on a set of cell lines. NANT3456 is described in more detail in WO/2014/071378, published May 8, 2014, which is incorporated by reference herein. In some embodiments, the data points on FIG. 2 represent distinct cell lines from different tissues, distinct cell lines from the same tissue, or any combination thereof. Further, the cell lines may be derived from a single host, multiple distinct hosts, or any combination. In this example, NANT3456 is known to be capable of treating diseases associated with the set of cell lines (e.g., cell lines MV411, TT, AN3CA, K562, PC3, HCT116, ASPC1, MDAMB231, TF1, NCIH23, MIAPACA2, HS766T, CAPAN2, A549, HT29, U937, BXPC3, CAPAN1, and SU8686). […]

cell line MV411 = assay: Treatment effectiveness (GI50) on cell line MV411; conditions: Homo sapiens, MV4-11; data point 225, FIG. 2; read-out: sensitivity class from GI50 treatment effectiveness value
Text: as §1, §2

cell line TT = assay: Treatment effectiveness (GI50) on cell line TT; conditions: data point 230, FIG. 2; read-out: sensitivity class from GI50 treatment effectiveness value
Text: as §1, §2

cell line PC3 = assay: Treatment effectiveness (GI50) on cell line PC3; conditions: data point 235, FIG. 2; read-out: sensitivity class from GI50 treatment effectiveness value
Text: as §1, §2

NCIH23 = assay: Treatment effectiveness (GI50) on cell line NCIH23; conditions: Homo sapiens, NCI-H23; data point 240, FIG. 2; read-out: sensitivity class from GI50 treatment effectiveness value
Text: as §1, §2

cell line HT29 = assay: Treatment effectiveness (GI50) on cell line HT29; conditions: Homo sapiens, HT-29; data point 245, FIG. 2; read-out: sensitivity class from GI50 treatment effectiveness value
Text: as §1, §2

cell line CAPAN1 = assay: Treatment effectiveness (GI50) on cell line CAPAN1; conditions: Homo sapiens, CAPAN-1; data point 250, FIG. 2; read-out: sensitivity class from GI50 treatment effectiveness value
Text: as §1, §2

**Q.** For `C/C=C/c1cc(Nc2cc(N3CCN(C)CC3)nc(Oc3cc(F)c4[nH]c(C)cc4c3F)n2)n[nH]1` [NANT3456], which “threshold effectiveness value (median value of all treatment effectiveness values, GI50)” value [1] is on record?
**A.** 1.7 log10 units of nanomolar drug

**Q.** And the GI50 (cell line MV411)?
**A.** < 50.1 nM

**Q.** And the GI50 (cell line TT)?
**A.** < 50.1 nM

**Q.** And the GI50 (cell line PC3)?
**A.** < 50.1 nM

**Q.** And the GI50 (NCIH23)?
**A.** > 50.1 nM

**Q.** What about the GI50 sensitivity class (cell line HT29) of the same molecule?
**A.** > 50.1 nM

**Q.** What about the GI50 (cell line CAPAN1) of the same molecule?
**A.** > 50.1 nM
